Assay results: patent publication US20220170028A1, “NOVEL INTERLEUKIN-2 VARIANTS AND BIFUNCTIONAL FUSION MOLECULES THEREOF” (Cugene Inc, priority 2019, published 2022)

Key:
[1] = system: CD4+ Tconv cells, CD8 T cells and NK cells; assay: Effector T cell and NK cell proliferation and expansion in mice after a single subcutaneous injection (Example 9); format: in vivo, mouse; settings: 0.3 mg/kg single s.c., C57/BL6 mice
Experimental: (§1) IL-2 variant Fc fusion proteins were administered to mice and their ability to preferentially proliferate and expand regulatory T cells (CD4+CD25+FoxP3+ T cells) over effector T cells and NK cells were determined in vivo.
(§2) Female C57/BL6 mice (7-week old) were received from Charles River Laboratory and acclimated in house for at least 7 days before the study. Vehicle (PBS), 0.3 mg/kg of each test compounds, or IL-2 benchmark compounds were subcutaneously administered to mice on day 0. Peripheral blood samples were collected into heparin-treated tubes on days 3, 5 and 7 post-treatment. Each group contained 6 mice and baseline blood was collected 2 days prior to the treatment (day −2). After red blood cell lysis, total viable mononuclear blood cells were counted by trypan blue dead cell exclusion method and proceeded to intracellular staining for immune cell phenotype and Ki67 proliferation markers using flow cytometric analysis. Cells were stained separately with two panels of antibodies as listed: 1) anti-mouse Foxp3-FITC, Ki67-PE, anti-mouse CD25-APC and anti-mouse CD4-Percpcy5.5 (1:50 dilution) for CD4+T-regulatory cells (Treg); 2) anti-mouse CD3-FITC, Ki67-PE, anti-mouse CD335-APC and anti-mouse CD8-Percpcy5.5 (1:50 dilution) for CD8+T and NK cells.

[2] = system: STAT5 phosphorylation in CD8+ T cells; assay: STAT5 phosphorylation in CD8+ T cells, human PBMC; format: cell-based
Source text: The Stat5 phosphorylation activity on other responder cells than CD4+ T cell subsets, including CD8+T and NK, by P-0511 was compared to P-0531, the S125I equivalent of wild-type P-0250. […] IL-2 receptors expressed on CD4+ Tconv, CD8+T and NK cells are primarily dimeric IL-2Rs, comprising IL-2R6 and γc.

[3] = Aggregate content by size-exclusion chromatography after Protein A purification; format: physicochemical; settings: Isoleucine-125 constructs; after MabSelectSure
Experimental: For affinity chromatography each supernatant was loaded on a HiTrap MabSelectSure column (CV=5 mL, GE Healthcare) equilibrated with 25 ml phosphate buffered saline, pH 7.2 (ThermoFisher). Unbound protein was removed by washing with 5 column volumes PBS, pH 7.2 and target protein was eluted with 25 mM sodium citrate, 25 mM sodium chloride, pH 3.2. Protein solution was neutralized by adding 3% of 1 M Tris pH 10.2. Ion exchange chromatography or mix-mode chromatography, including but not limited to CaptoMMC (GE Healthcare), ceramic hydroxyapatite, or ceramic fluoroapatite (Bio-Rad) was also utilized to polish the Protein A material as needed. Target protein was concentrated with an Amicon®Ultra-15 concentrator 10 KDa NMWC (Merck Millipore Ltd.)
The purity and molecular weight of the purified constructs were analyzed by SDS-PAGE with and in the absence of a reducing agent and staining with Coomassie (Imperial® Stain). The NuPAGE® Pre-Cast gel system (4-12% or 8-16% Bis-Tris, ThermoFisher) was used according to the manufacturer's instructions. The protein concentration of purified protein samples was determined by measuring the UV absorbance at 280 nm (Nanodrop Spectrophotometer, ThermoFisher) divided by the molar extinction coefficient calculated on the basis of the amino acid sequence. The aggregate content of the constructs was analyzed on an Agilent 1200 high-performance liquid chromatography (HPLC) system. Samples were injected onto an AdvanceBio size-exclusion column (300 Å, 4.6×150 mm, 2.7 μm, LC column, Agilent) using 150 mM sodium phosphate, pH 7.0 as the mobile phase at 25° C.
(§3) S125I substitution was thus introduced into a number of IL-2 variant Fc fusion molecules. The constructs harboring Ile-125 substitution in IL-2 were expressed using the same vector and in the same culturing conditions as their Ser-125 counterparts and purified using MabSelectSure. The expression level in mg/L and purity assessed by SEC chromatography in aggregation % of exemplary molecules are summarized in Table 6. The two molecules in the same row of Table 6 share the same other amino acid substitution(s) and differ only at residue 125 with either serine or isoleucine. As an example, the SEC chromatogram and SDS-PAGE pictures of P-0447 (SEQ ID NO: 173) and its Ile-125 counterpart P-0511 (SEQ ID NO: 213) were further illustrated in FIGS. 1D and 1E.

Treg cells [4] = assay: Treg proliferation and expansion in mice after a single subcutaneous injection (Example 9); format: in vivo, mouse; settings: 0.3 mg/kg single s.c., C57/BL6 mice
Experimental: as §1, §2

Treg cells [5] = assay: Treg proliferation and expansion in mice after a single s.c. injection of bifunctional constructs (Example 17); format: in vivo, mouse; settings: 15 nmol/kg single s.c., C57/BL6 mice
Experimental: as §1, with “IL-2 variant tocilizumab bifunctional proteins P-0536, P-0546, P-0559, and P-0560 along with IL-2” for “IL-2”, “protein P-0511” for “proteins”, “mice,” for “mice”
Female C57/BL6 mice (7-week old) were received from Charles River Laboratory and acclimated in house for at least 7 days before the study. Vehicle (PBS) and 15 nmol/kg each test compounds were subcutaneously administered to mice on day 0. Peripheral blood samples were collected into heparin-treated tubes on days 2, 4 and 8 post-treatment. Each group contained 5 mice and baseline blood was collected 3 days prior to the treatment (day −3).

[6] = Transient expression level of IL-2 Fc fusion constructs in HEK-293F cells; settings: Isoleucine-125 constructs
Experimental: The constructs were produced by co-transfecting HEK293-F cells growing in suspension with the mammalian expression vectors using polyethylenimine (PEI, 25,000 MW linear, Polysciences). If there were two or more expression vectors, the vectors were transfected in a 1:1 ratio. For transfection, HEK293 cells were cultivated in serum free FreeStyle™ 293 Expression Medium (ThermoFisher). For production in 1000 ml shaking flasks (working volume 330 mL), HEK293 cells were seeded at a density of 0.8×10^6 cells/ml 24 hours before transfection. A total of 330 μg of DNA expression vectors were mixed with 16.7 ml Opti-mem Medium (ThermoFisher). After addition of 0.33 mg PEI diluted in 16.7 ml Opti-mem Medium, the mixture was vortexed for 15 sec and subsequently incubated for 10 min at room temperature. The DNA/PEI solution was then added to the cells and incubated at 37° C. in an incubator with 8% CO2. Sodium butyrate (Millipore Sigma) was added to the cells at day 4 at a final concentration of […] to help sustain protein expression. After 6 days cultivation, supernatant was collected for purification by centrifugation for 20 min at 2200 rpm. The solution was sterile filtered (0.22 μm filter, Corning). The secreted protein was purified from cell culture supernatants using Protein A affinity chromatography.
as §3

In the case of “P-0511: IL-2 L19H/S125I/Q126E Fc fusion, SEQ ID NO: 213”, the “Ki67 stimulation on CD8 T cells and NK cells in vivo (in words)” value [1] is reported as “mild Ki67 stimulation”, the “expansion of CD4+ Tconv cells, CD8 T cells or NK cells in vivo” value [1] is reported as “No significant expansion” and the “STAT5 phosphorylation activity in CD8+ T cells (in words)” value [2] is reported as “nearly completely abolished”. For the same substance, the “Aggregation % (SEC)” value [3] was 0.7%, the “Treg/Tconv ratio (Ki67 stimulation and cell counts)” value (Treg cells [4]; all measured time points) was “most beneficial Treg/Tconv ratio” and the “stimulation of Treg cell proliferation and expansion in vivo (in words)” value (Treg cells [4]; days 3, 5, 7) was “stronger in vivo efficacy”. The “potency in inducing Treg cell proliferation and expansion in vivo (in words)” value (Treg cells [5]) was “comparable in vivo Treg stimulation efficacy as P-0560” and the “Expression” value [6] was 26.6 mg/L.
